Test results taken from the NIST ThermoML archive (doi:10.1021/je049918m).
Where “and” joins values, the source holds several entries; their conditions need not be identical. Identical values can stand only once.

Conditions: Liquid, Falling or rolling sphere viscometry

O [water]
Conditions	viscosity
255.65 K, 177500 kPa	2.945 mPa·s
255.65 K, 190300 kPa	2.955 mPa·s
255.65 K, 196700 kPa	2.959 mPa·s
255.65 K, 201800 kPa	2.964 mPa·s
255.65 K, 231800 kPa	3.003 mPa·s
255.65 K, 257800 kPa	3.056 mPa·s
255.65 K, 292300 kPa	3.135 mPa·s
255.65 K, 321100 kPa	3.217 mPa·s
258.15 K, 159300 kPa	2.678 mPa·s
258.15 K, 188400 kPa	2.69 mPa·s
258.15 K, 205200 kPa	2.708 mPa·s
258.15 K, 209200 kPa	2.71 mPa·s
258.15 K, 239800 kPa	2.754 mPa·s
258.15 K, 282600 kPa	2.834 mPa·s
258.15 K, 309000 kPa	2.898 mPa·s
258.15 K, 323500 kPa	2.934 mPa·s
258.15 K, 333200 kPa	2.957 mPa·s
258.15 K, 354100 kPa	3.019 mPa·s
258.15 K, 361000 kPa	3.033 mPa·s
263.15 K, 112000 kPa	2.258 mPa·s
263.15 K, 112100 kPa	2.258 mPa·s
263.15 K, 128600 kPa	2.247 mPa·s
263.15 K, 150800 kPa	2.244 mPa·s
263.15 K, 180700 kPa	2.256 mPa·s
263.15 K, 209900 kPa	2.281 mPa·s
263.15 K, 240100 kPa	2.315 mPa·s
263.15 K, 270500 kPa	2.357 mPa·s
263.15 K, 302000 kPa	2.415 mPa·s
263.15 K, 335400 kPa	2.481 mPa·s
263.15 K, 386400 kPa	2.605 mPa·s
268.15 K, 61100 kPa	1.969 mPa·s
268.15 K, 80800 kPa	1.942 mPa·s
268.15 K, 98000 kPa	1.927 mPa·s
268.15 K, 100200 kPa	1.926 mPa·s
268.15 K, 124200 kPa	1.914 mPa·s
268.15 K, 151100 kPa	1.913 mPa·s
268.15 K, 177500 kPa	1.924 mPa·s
268.15 K, 213300 kPa	1.949 mPa·s
268.15 K, 245400 kPa	1.982 mPa·s
268.15 K, 295300 kPa	2.047 mPa·s
268.15 K, 350800 kPa	2.138 mPa·s
268.15 K, 376700 kPa	2.19 mPa·s
268.15 K, 387900 kPa	2.212 mPa·s
273.15 K, 100 kPa	1.799 mPa·s and 1.802 mPa·s
273.15 K, 30700 kPa	1.722 mPa·s
273.15 K, 60400 kPa	1.678 mPa·s
273.15 K, 90700 kPa	1.653 mPa·s
273.15 K, 120600 kPa	1.644 mPa·s
273.15 K, 150300 kPa	1.649 mPa·s
273.15 K, 180000 kPa	1.659 mPa·s
273.15 K, 209600 kPa	1.678 mPa·s
273.15 K, 240300 kPa	1.704 mPa·s
273.15 K, 270400 kPa	1.735 mPa·s
273.15 K, 300400 kPa	1.771 mPa·s
273.15 K, 330300 kPa	1.81 mPa·s
273.15 K, 359500 kPa	1.852 mPa·s
273.15 K, 386700 kPa	1.893 mPa·s
278.15 K, 100 kPa	1.528 mPa·s
278.15 K, 600 kPa	1.527 mPa·s
278.15 K, 30700 kPa	1.481 mPa·s
278.15 K, 60700 kPa	1.454 mPa·s
278.15 K, 90500 kPa	1.44 mPa·s
278.15 K, 120300 kPa	1.439 mPa·s
278.15 K, 150800 kPa	1.444 mPa·s
278.15 K, 180700 kPa	1.456 mPa·s
278.15 K, 210700 kPa	1.476 mPa·s
278.15 K, 240400 kPa	1.498 mPa·s
278.15 K, 270400 kPa	1.522 mPa·s
278.15 K, 300600 kPa	1.555 mPa·s
278.15 K, 330300 kPa	1.591 mPa·s
278.15 K, 360000 kPa	1.631 mPa·s
278.15 K, 389000 kPa	1.672 mPa·s
283.15 K, 100 kPa	1.313 mPa·s and 1.31 mPa·s
283.15 K, 500 kPa	1.31 mPa·s
283.15 K, 30700 kPa	1.28 mPa·s
283.15 K, 60700 kPa	1.264 mPa·s
283.15 K, 90700 kPa	1.257 mPa·s
283.15 K, 120800 kPa	1.257 mPa·s
283.15 K, 150800 kPa	1.263 mPa·s
283.15 K, 180800 kPa	1.275 mPa·s
283.15 K, 210200 kPa	1.293 mPa·s
283.15 K, 240600 kPa	1.314 mPa·s
283.15 K, 270700 kPa	1.337 mPa·s
283.15 K, 300200 kPa	1.362 mPa·s
283.15 K, 330000 kPa	1.39 mPa·s
283.15 K, 359200 kPa	1.42 mPa·s
283.15 K, 385200 kPa	1.45 mPa·s
298.15 K, 100 kPa	0.892 mPa·s and 0.893 mPa·s
298.15 K, 31000 kPa	0.888 mPa·s
298.15 K, 61000 kPa	0.888 mPa·s
298.15 K, 90900 kPa	0.891 mPa·s
298.15 K, 120700 kPa	0.898 mPa·s
298.15 K, 150600 kPa	0.907 mPa·s
298.15 K, 180600 kPa	0.919 mPa·s
298.15 K, 210600 kPa	0.933 mPa·s
298.15 K, 240600 kPa	0.948 mPa·s
298.15 K, 270100 kPa	0.965 mPa·s
298.15 K, 299700 kPa	0.983 mPa·s
298.15 K, 329200 kPa	1.002 mPa·s
298.15 K, 358500 kPa	1.022 mPa·s
298.15 K, 384300 kPa	1.042 mPa·s
